This passage reports IC50 and DC50 results from patent US11352350B2, “IRAK degraders and uses thereof” (Kymera Therapeutics, Inc., priority 2018, dated 2022).

One test deals with IL-6. The experiment in a line: IL-6 secretion in hPBMC using R848 stimulation. The following applies: Homo sapiens, 20 h, hPBMC, R848 as stim, t = 20 h. It is filed as cell-based, human.
Test [1] concerns the target T1, IRAK4 (Homo sapiens (Human), UniProt Q9NWZ3). Kind of test: IRAK4 MSD degradation in OCI-LY10. It is filed as cell-based. As to conditions: OCI-LY10, 4 hrs. An outline of the steps: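 OCI-LY10 cells treated with 8-point 1:3 dilutions (top 1 to 10 μM final) for 4 to 24 h at 37° C. Lysate IRAK4 measured by MSD sandwich immunoassay (2H9 capture, Y279 detection, SULFO-TAG anti-rabbit). DC50 from three-parameter logistic fit.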

Test [2] has as its target T1, IRAK4. Kind of test: hPBMC IRAK4 degradation flow assay. As to conditions: hPBMC monocyte. It is filed as cell-based. An outline of the steps: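 Thawed human PBMCs treated with 10-point, 5-fold compound dilutions (0.1% DMSO) at 37° C. for 20 hours or 4 hours. IRAK4 measured by flow MFI in CD14+ monocytes and CD14− lymphocytes, normalized to DMSO and 10 μM 20-hour control; DC50 and max degradation from 4-parameter logistic fit.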

The subject of the next test is OCI-LY10. The experiment in a line: CTG Cell Viability Assay - OCI-LY10. As to conditions: Homo sapiens, OCI-Ly10, 96 h, OCI-LY10, 4 days; read-out: CTG Cell Viability Assay - OCI-LY10: Average external-IC50. The format is cell-based, human. An outline of the steps: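 OCI-LY10 cells exposed to 9-dose, 1:3 dilutions from 10 μM top (0.2% DMSO) for 4 days at 37° C, 5% CO2. Viability by CellTiter-Glo luminescence; IC50 from three-parameter logistic fit.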

[3] abbreviates: read-out: IRAK4 MSD degradation in OCI-LY10 at 4 hrs: DC50.
Where [4] appears, read: 20 hrs, read-out: IRAK4 degradation in hPBMC monocyte: DC50.
Setting [5] is: MSD, read-out: IRAK4 MSD degradation in OCI-LY10 at 4 hrs: Average external-Abs DC50.
Setting [6] is: 20 hr, flow assay, read-out: IRAK4 degradation in hPBMC monocyte at 20 hr: Average external Abs DC50.

Each structure is given as a SMILES string. Some results are limits rather than exact numbers.

T1 sequence (Q9NWZ3 whole entry): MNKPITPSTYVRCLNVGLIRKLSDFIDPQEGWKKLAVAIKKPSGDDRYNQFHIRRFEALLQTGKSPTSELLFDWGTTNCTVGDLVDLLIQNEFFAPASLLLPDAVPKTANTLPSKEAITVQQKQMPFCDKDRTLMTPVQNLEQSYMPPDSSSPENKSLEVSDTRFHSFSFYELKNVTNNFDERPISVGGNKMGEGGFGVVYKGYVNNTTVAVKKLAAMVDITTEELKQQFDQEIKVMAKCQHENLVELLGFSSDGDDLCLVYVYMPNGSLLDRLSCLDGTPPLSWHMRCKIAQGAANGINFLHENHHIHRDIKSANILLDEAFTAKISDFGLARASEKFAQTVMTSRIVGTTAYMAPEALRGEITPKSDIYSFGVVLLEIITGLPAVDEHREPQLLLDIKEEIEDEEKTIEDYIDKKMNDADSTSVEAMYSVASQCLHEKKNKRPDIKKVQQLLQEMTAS

As for `C[C@@H]1CN(c2ccn3ncc(C(=O)Nc4cn([C@H]5CC[C@H](C(=O)N6CCC7(CC6)CN(CCCc6cccc8c6n(C)c(=O)n8C6CCC(=O)NC6=O)C7)CC5)nc4C(F)F)c3n2)C[C@H](C)O1` (stereo partly shown) [I-480], the IC50 (commonly the concentration that inhibits the measured activity by half) is < 1 nM in the test on IL-6 and > 1000 nM in the test on OCI-LY10. In addition, the DC50 (usually the concentration at which degradation of the target reaches its halfway point) on IRAK4 [1] (setting [3]) is 10 to 100 nM; at IRAK4 [2] (setting [4]), < 10 nM.
Regarding `CN(C[C@H]1CC[C@H](C2N=C(NC(=O)c3cnn4ccc(N5C[C@H]6C[C@@H]5CO6)nc34)C(C(F)F)=N2)CC1)C1CCC2(CC1)CC(Cc1cccc3c1n(C)c(=O)n3C1CCC(=O)NC1=O)C2` (stereo partly shown) [I-554], the IC50 in the test on IL-6 was < 1 nM; in the test on OCI-LY10, > 1000 nM. For the same molecule, the DC50 at IRAK4 [1] (setting [3]) is 10 to 100 nM; on IRAK4 [2] (setting [4]), < 10 nM.
The corresponding values for `O=C1CCC(n2c3ccccc3c3c(CCCN4CC5(CCN(C(=O)[C@H]6CC[C@H](n7cc(NC(=O)c8cnn9ccc(N%10C[C@H]%11C[C@@H]%10CO%11)nc89)c(C(F)F)n7)CC6)CC5)C4)ccnc32)C(=O)N1` (stereo partly shown) [I-447] are 1 to 10 nM, > 1000 nM, 10 to 100 nM and < 10 nM.
Take `Cn1c(=O)n(C2CCC(=O)NC2=O)c2cccc(C#CCN3CCC4(CC3)CN(C(=O)[C@H]3CC[C@H](n5cc(NC(=O)c6cnn7ccc(N8C[C@H]9C[C@@H]8CO9)nc67)c(C(F)F)n5)CC3)C4)c21` (stereo partly shown) [I-418]: the values for the IC50 in the test on IL-6 and in the test with OCI-LY10 were 1 to 10 nM and > 1000 nM, respectively. Moreover, the DC50 at IRAK4 [1] (setting [5]) and at IRAK4 [2] (setting [6]) was 10 to 100 nM in each case.
Consider `Cn1c(=O)n(C2CCC(=O)NC2=O)c2cccc(CCC(=O)N3CCC4(CC3)CN(C[C@H]3CC[C@H](n5cc(NC(=O)c6cnn7ccc(N8C[C@H]9C[C@@H]8CO9)nc67)c(C(F)F)n5)CC3)C4)c21` (stereo partly shown) [I-414], for which the IC50 with IL-6 is < 1 nM; in the test on OCI-LY10, > 1000 nM. Besides, the DC50 on IRAK4 [1] (setting [5]) and on IRAK4 [2] (setting [6]) was < 10 nM each time.
Consider `Cn1c(=O)n(C2CCC(=O)NC2=O)c2cccc(CN3CCC(OC4CCN(C[C@H]5CC[C@H](n6cc(NC(=O)c7cnn8ccc(N9C[C@H]%10C[C@@H]9CO%10)nc78)c(C(F)F)n6)CC5)CC4)CC3)c21` (stereo partly shown) [I-513], for which the IC50 was < 1 nM in the test on IL-6 and > 1000 nM with OCI-LY10. For the same molecule, the DC50 on IRAK4 [1] (setting [3]) and at IRAK4 [2] (setting [4]) was < 10 nM in each case.
`CN(CCCOCCCc1cccc2c1n(C)c(=O)n2C1CCC(=O)NC1=O)C[C@H]1CC[C@H](n2cc(NC(=O)c3cnn4ccc(N5CCCCC5)nc34)c(C(F)F)n2)CC1` (stereo partly shown) [I-419]: the values for the IC50 in the test with IL-6 and in the test with OCI-LY10 were 1 to 10 nM and > 1000 nM, respectively. For the same molecule, the DC50 at IRAK4 [1] (setting [5]) is 10 to 100 nM; at IRAK4 [2] (setting [6]) it was < 10 nM.
With `Cn1c(=O)n(C2CCC(=O)NC2=O)c2cccc(C#CCCCOCc3ccc(-n4cc(NC(=O)c5cnn6ccc(N7C[C@H]8C[C@@H]7CO8)nc56)c(C(F)F)n4)cc3)c21` (stereo partly drawn) [I-498, N-[3-(difluoromethyl)-1-[4-[5-[1-(2,6-dioxo-3-piperidyl)-3-methyl-2-oxo-benzimidazol-4-yl]pent-4-ynoxymethyl]phenyl]pyrazol-4-yl]-5-[(1R,4R)-2-oxa-5-azabicyclo [2.2.1]heptan-5-yl] pyrazolo[1,5-a]pyrimidine-3-carboxamide], the IC50 in the test with IL-6 was 10 to 100 nM; with OCI-LY10 it was > 1000 nM. Besides, the DC50 on IRAK4 [1] (setting [3]) and on IRAK4 [2] (setting [4]) was 100 to 1000 nM in each case.
Take `Cn1c(=O)n(C2CCC(=O)NC2=O)c2cccc(CN3C[C@H]4CC[C@@H](C3)N4CC[C@H]3CC[C@H](n4cc(NC(=O)c5cnn6ccc(N7C[C@H]8C[C@@H]7CO8)nc56)c(C(F)F)n4)CC3)c21` (stereo partly shown) [I-511]: the results for the IC50 with IL-6 and with OCI-LY10 were 1 to 10 nM and > 1000 nM, respectively. Further, the DC50 on IRAK4 [1] (setting [3]) was 10 to 100 nM; on IRAK4 [2] (setting [4]), < 10 nM.
The corresponding values for `CN(CCCc1cccc2c1n(C)c(=O)n2C1CCC(=O)NC1=O)C(=O)c1ccc(N2CCC(n3cc(NC(=O)c4cnn5ccc(N6C[C@H]7C[C@@H]6CO7)nc45)c(C(F)F)n3)CC2)cc1` (stereo partly shown) [I-479] are 10 to 100 nM, > 1000 nM, 100 to 1000 nM and 100 to 1000 nM.
Molecule `Cn1c(=O)n(C2CCC(=O)NC2=O)c2cccc(CN3CC4(CCN(Cc5ccc(-n6cc(NC(=O)c7cnn8ccc(N9C[C@H]%10C[C@@H]9CO%10)nc78)c(C(F)F)n6)cc5)CC4)C3)c21` (stereo partly shown) [I-464] returned an IC50 in the test with IL-6 of 1 to 10 nM. The DC50 on IRAK4 [1] (setting [3]) and on IRAK4 [2] (setting [4]) was 10 to 100 nM in each case.
For the molecule `C[C@H]1CN(c2ccn3ncc(C(=O)NC4=NC([C@H]5CC[C@H](CN6CCC(CC#Cc7cccc8c7n(C)c(=O)n8C7CCC(=O)NC7=O)CC6)CC5)N=C4C(F)F)c3n2)C[C@H](C)O1` (stereo partly shown) [I-549], the IC50 in the test with IL-6 lay in the range of 1 to 10 nM. The results for the DC50 at IRAK4 [1] (setting [3]) and at IRAK4 [2] (setting [4]) were 10 to 100 nM and < 10 nM, respectively.
For `C[C@H]1CN(c2ccn3ncc(C(=O)NC4=NC([C@H]5CC[C@H](CN6CCC(CCCc7cccc8c7n(C)c(=O)n8C7CCC(=O)NC7=O)CC6)CC5)N=C4C(F)F)c3n2)C[C@H](C)O1` (stereo partly shown) [I-543] the same measures were < 1 nM, 10 to 100 nM and < 10 nM.
For `Cn1c(=O)n(C2CCC(=O)NC2=O)c2cccc(CCCCN3CCN(C[C@H]4CC[C@H](n5cc(NC(=O)c6cnn7ccc(N8C[C@H]9C[C@@H]8CO9)nc67)c(C(F)F)n5)CC4)CC3)c21` (stereo partly shown) [I-471] the same measures were < 1 nM, < 10 nM and < 10 nM.
Take `Cn1c(=O)n(C2CCC(=O)NC2=O)c2cccc(C[C@H]3CC[C@H](N(C)C[C@H]4CC[C@H](n5cc(NC(=O)c6cnn7ccc(N8C[C@H]9C[C@@H]8CO9)nc67)c(C(F)F)n5)CC4)CC3)c21` (stereo partly shown) [I-508]: the IC50 in the test on IL-6 was 1 to 10 nM; in the test with OCI-LY10 it was > 1000 nM. Moreover, on IRAK4 [2] (setting [4]), the DC50 is < 10 nM.
Consider `Cn1c(=O)n(C2CCC(=O)NC2=O)c2cccc(C#CCOC3CCN(C[C@H]4CC[C@H](n5cc(NC(=O)c6cnn7ccc(N8C[C@H]9CC[C@@H](C8)O9)nc67)c(C(F)F)n5)CC4)CC3)c21` (stereo partly shown) [I-547], for which, in the test on IL-6, the IC50 lay in the range of 1 to 10 nM. In addition, the DC50 at IRAK4 [1] (setting [3]) and at IRAK4 [2] (setting [4]) was < 10 nM each time.
Consider `Cn1c(=O)n(C2CCC(=O)NC2=O)c2cccc(CN3CCN(CC[C@H]4CC[C@H](n5cc(NC(=O)c6cnn7ccc(N8C[C@H]9C[C@@H]8CO9)nc67)c(C(F)F)n5)CC4)CC3)c21` (stereo partly shown) [I-510], for which the IC50 in the test on IL-6 was 1 to 10 nM; with OCI-LY10, > 1000 nM. Also, the DC50 on IRAK4 [2] (setting [4]) was < 10 nM.
Turning to `Cn1c(=O)n(C2CCC(=O)NC2=O)c2cccc(CCCCN3CCN(C(=O)[C@H]4CC[C@H](n5cc(NC(=O)c6cnn7ccc(N8C[C@H]9C[C@@H]8CO9)nc67)c(C(F)F)n5)CC4)CC3)c21` (stereo partly shown) [I-472], in the test with IL-6, the IC50 was < 1 nM. Besides, the DC50 on IRAK4 [1] (setting [3]) and at IRAK4 [2] (setting [4]) was < 10 nM in each case.
Consider `Cn1c(=O)n(C2CCC(=O)NC2=O)c2cccc(CCC(=O)N3CCC4(CCN(C[C@H]5CC[C@H](n6cc(NC(=O)c7cnn8ccc(N9C[C@H]%10C[C@@H]9CO%10)nc78)c(C(F)F)n6)CC5)CC4)CC3)c21` (stereo partly shown) [I-467], for which the IC50 in the test with IL-6 is < 1 nM. The half-maximal degradation concentration (DC50) on IRAK4 [1] (setting [3]) and on IRAK4 [2] (setting [4]) was < 10 nM throughout.
As for `C[C@@H]1CN(c2ccn3ncc(C(=O)NC4=NC([C@H]5CC[C@H](CN6CCC(CC#Cc7cccc8c7n(C)c(=O)n8C7CCC(=O)NC7=O)CC6)CC5)N=C4C(F)F)c3c2)C[C@H](C)O1` (stereo partly shown) [I-530], the IC50 in the test on IL-6 is < 1 nM. The DC50 at IRAK4 [1] (setting [3]) is 10 to 100 nM; at IRAK4 [2] (setting [4]) it was < 10 nM.
